Here are results for three compounds from article PMC10251204, “Medicago Sativa Defensin1 as a tumor sensitizer for improving chemotherapy: translation from anti-fungal agent to a potential anti-cancer agent” (Frontiers in Oncology, 2023).

“Also recorded” adds a separate entry of the source. Bridges are numbered along the chain shown (N, C = ends). Where no end group is shown, it is not given here.

For data set [1], the system named is normal epithelial breast cells (MCF-10A). As to the kind of experiment: NBD-MsDef1 uptake by confocal microscopy, MCF-10A. Also noted: dose or concentration left out as unconfirmed. The class given is cell-based. Particulars: even at 5-fold higher dose.
Data set [2] deals with resistant TNBC MDA-MB-231R cells. As to the kind of experiment: NBD-MsDef1 uptake by confocal microscopy, MDA-MB-231R. It counts as cell-based. To be noted: 15 min at 37°C, 20, 6.6 or 2.2 µg/ml, N=4.
The next data set deals with ovarian SKOV3 cells. As to the kind of experiment: NBD-MsDef1 uptake by confocal microscopy, SKOV3. The class given is cell-based. To be noted: 15 min at 37°C, 20, 6.6 or 2.2 µg/ml, N=4.
Another data set relates to fibroblasts cells. The experiment in a line: NBD-MsDef1 uptake by confocal microscopy, fibroblasts. It counts as cell-based. More on the design: dose or concentration left out as unconfirmed. Particulars: even at 5-fold higher dose.
Data set [3] is described as follows: IC50 of NBD-labelled peptide, cell line not stated. The class given is cell-based. Particulars: similar to native MsDef1. The method, then: (§1) Cell viability was evaluated by the standard MTT ([…])-2,5-diphenyltetrazolium bromide, Sigma) method. All cancer cells (MDA-MB-231, MCF-7, MCF-R, Hela, MCF-10A epithelial breast cells, induced pluripotent stem cells derived cardiomyocytes (iPSc) were added to the wells of 96-well flat-bottom plates at the density of 2×10^4 per well, allowed to attach overnight, and treated with different concentrations of MsDef1 (1-100 µM). After 24 h, 10 µl of MTT solution was added to each well and the plate was incubated at 37°C for 3 h. After removing the media, 200 µl of isopropanol were added to dissolve the crystals. Absorbance was read at 550 nm in an ELISA plate reader (Sunrise, Tecan, Milan, Italy), and the results are expressed as relative change with respect to the controls set as 100%. For cardiomyocytes, human iPSCs were used (Ionic Transports, St Louis).

Another data set concerns MCF-7R cells. The experiment in a line: Cell death / apoptosis (TUNEL) synergy study, MCF-7R. The class given is cell-based. Particulars: MsDef1 ~25 μM, Doxorubicin; combination = MsDef1 pretreatment followed by Doxorubicin; N=4. The method, then:
(§2) Doxorubicin resistant MCF-7R and MDA-MB-231R cells were grown in DMEM 10% FBS with increasing concentrations of Doxorubicin as described by Bielawski et al. ([40]). Cells were seeded and exposed to increasing concentrations of Doxorubicin (10 nM to 100 nM). MCF-7 or MDA-MB-231 cells were seeded in cell culture flasks and after 24 h, cells were trypsinized, counted viable cells and reseeded into a new culture flask before adding Doxorubicin again.
(§3) The percentage of apoptotic cells was determined by using TUNEL assay according to the manufacturer protocol. Briefly, cells were fixed with 1% paraformaldehyde at 4 °C, followed by two washing with PBS. Cold 70% ethanol was added to the cell pellet. Cells were then incubated at −20°C for permeabilization. After washing with PBS, cells were incubated with staining solution containing TdT enzyme and fluorescein-dUTP for 60 min at 37°C. Samples were washed with rinse buffer and resuspended in […] of propidium iodise/RNase solution for flow cytometry analysis.

Another data set deals with MDA-MB-231 cells. The experiment in a line: cells. To be noted: Homo sapiens, Doxorubicin dose response alone or combined with Def1 at 20 μM, N=4, unit inferred, read-out: IC50 (Figure 6C). It counts as cell-based.
The subject of the next data set is MDA-MB-231R cells. The experiment in a line: Cell death / apoptosis (TUNEL) synergy study, MDA-MB-231R. It counts as cell-based. Particulars: MsDef1 ~25 μM, Doxorubicin; combination = MsDef1 pretreatment followed by Doxorubicin; N=4. The protocol: as §2, §3
For the next data set, the system named is normal cells. The experiment in a line: Cell viability, normal cells. It counts as cell-based. To be noted: Figure 6B. The method, then:
as §1

A further data set has as its target pepsin (Sus scrofa, UniProt P00791). Particulars: SGF (200 mg NaCl, 0.2% pepsin, pH 2), 500 μL, 37°C, 2 min preincubation, 25 μL of 5 mg/ml protein, SDS PAGE read-out, n=4.
Data set [4] deals with GlcCer and Trx positive cancer cells. Particulars: read-out: inhibitory activity IC50 against several cancer cells. The protocol:
as §1

Sequence of pepsin (P00791 60-385): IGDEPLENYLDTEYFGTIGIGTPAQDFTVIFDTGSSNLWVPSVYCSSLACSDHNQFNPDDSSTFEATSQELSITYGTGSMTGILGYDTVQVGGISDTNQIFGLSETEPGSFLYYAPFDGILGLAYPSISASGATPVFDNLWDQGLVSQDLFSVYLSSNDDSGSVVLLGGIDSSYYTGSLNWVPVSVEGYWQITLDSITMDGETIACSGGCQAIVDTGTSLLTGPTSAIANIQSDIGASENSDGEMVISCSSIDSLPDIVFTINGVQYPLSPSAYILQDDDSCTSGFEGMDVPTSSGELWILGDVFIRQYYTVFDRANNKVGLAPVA
Protocol for pepsin: The Simulated Gastric Fluid (SGF) assay was performed as described by Fu et al., 2002 with some modification. Tests were performed in 500 μL of SGF (200 mg NaCl, 0.2% pepsin, pH 2) in glass tubes in a 37°C water bath with continuous stirring of the enzyme reaction. […] Five mg/ml bovine serum albumin (minimum 98%, A-7030, Sigma Aldrich) in ultrapure water was used as the positive control for pepsin digestion. Protein samples were analyzed for degradation by SDS PAGE followed by staining for 1 h and extensive washing with ultrapure water.

Broadly, the IC50 is the concentration needed to halve the response being measured. Consider “6-((N-(7-nitrobenz-2-oxa-1, 3-diazol-4-yl) amino) hexanoyl -MsDef1 [NBD-MsDef1]”, for which the cell uptake entry in [1] was “did not take up”; in data set [2], “significant uptake”; with ovarian SKOV3 cells, “significant uptake”; with fibroblasts cells, “did not take up”. Further, the IC50 in data set [3] worked out at 12 µM.

In the case of `COc1cccc2c1C(=O)c1c(O)c3c(c(O)c1C2=O)C[C@@](O)(C(=O)CO)C[C@@H]3O[C@H]1C[C@H](N)[C@H](O)[C@H](C)O1` [Doxorubicin], the cell death with MCF-7R cells and with MDA-MB-231R cells was ~ 30% throughout. For the same compound, the IC50 in the data set on MDA-MB-231 cells was 0.396 µM. Moreover, the “dose at which normal cells are killed / still safe” value in the data set on normal cells is ~ 9.6 μM.

As for “RTCENLADKYRGPCFSGCDTHCTTKENAVSGRCRDDFRCWCTKRC (disulfide 3-45, 14-33, 18-39, 22-41) [MsDef1]”, the “stability to digestion in SGF” value on pepsin is “remained undigested; also recorded: no significant change in the intensity of the bands”. In data set [4], the half-maximal inhibitory concentration (IC50) was in the range of 10 to 15 µM.
